In ChEMBL document CHEMBL5120930, “Discovery of Benzylpiperazine Derivatives as CNS-Penetrant and Selective Histone Deacetylase 6 Inhibitors” (ACS Med Chem Lett, 2022):
pIC50: −log10 of the molar value. Active and inactive are the calls of the source. No cut-off for these calls is given here.

What was measured:
[1] = molecular target: T1, Protein deacetylase HDAC6 (Mus musculus, UniProt Q9Z2V5); assay: Inhibition of mouse HDAC6 expressed in human HEK-293T cells using fluorescent peptide Ac-KGLGK(Ac)-MCA as substrate preincubated for 10 mins followed by substrate addition and measured after 1 hr by fluorogenic assay; type: cell-based
T1 sequence (Q9Z2V5 whole entry): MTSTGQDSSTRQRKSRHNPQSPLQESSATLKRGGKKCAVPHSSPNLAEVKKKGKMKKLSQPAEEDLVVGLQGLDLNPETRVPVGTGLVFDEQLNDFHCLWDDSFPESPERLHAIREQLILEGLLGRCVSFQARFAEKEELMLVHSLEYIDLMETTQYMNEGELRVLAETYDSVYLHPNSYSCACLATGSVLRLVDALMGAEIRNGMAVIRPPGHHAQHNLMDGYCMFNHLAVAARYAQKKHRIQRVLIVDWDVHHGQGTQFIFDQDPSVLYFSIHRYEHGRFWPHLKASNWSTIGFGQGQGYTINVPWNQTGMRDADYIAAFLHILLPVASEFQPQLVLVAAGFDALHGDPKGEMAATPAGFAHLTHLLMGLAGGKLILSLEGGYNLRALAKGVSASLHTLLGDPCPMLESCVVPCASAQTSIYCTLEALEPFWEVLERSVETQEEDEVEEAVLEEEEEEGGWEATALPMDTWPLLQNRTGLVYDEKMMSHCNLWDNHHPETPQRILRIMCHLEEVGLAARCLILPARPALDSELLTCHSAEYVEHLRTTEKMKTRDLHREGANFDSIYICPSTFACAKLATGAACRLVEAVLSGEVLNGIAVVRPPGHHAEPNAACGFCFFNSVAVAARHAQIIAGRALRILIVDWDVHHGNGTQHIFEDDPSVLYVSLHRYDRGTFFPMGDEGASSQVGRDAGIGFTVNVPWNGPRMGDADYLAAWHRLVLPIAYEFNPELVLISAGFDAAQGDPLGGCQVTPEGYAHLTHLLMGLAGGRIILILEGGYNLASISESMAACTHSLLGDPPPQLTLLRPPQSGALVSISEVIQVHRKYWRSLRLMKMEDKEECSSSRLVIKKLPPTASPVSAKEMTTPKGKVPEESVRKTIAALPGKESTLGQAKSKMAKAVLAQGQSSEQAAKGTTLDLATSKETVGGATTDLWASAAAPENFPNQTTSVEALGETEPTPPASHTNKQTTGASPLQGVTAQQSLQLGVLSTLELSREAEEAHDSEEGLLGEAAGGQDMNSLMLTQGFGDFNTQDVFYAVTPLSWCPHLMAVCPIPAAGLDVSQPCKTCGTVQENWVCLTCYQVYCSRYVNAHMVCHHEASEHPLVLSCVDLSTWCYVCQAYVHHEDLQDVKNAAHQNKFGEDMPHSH

Histone deacetylase 1 = Histone deacetylase 1 (Homo sapiens, UniProt Q13547); assay: Inhibition of human HDAC1 expressed in human HEK-293T cells using fluorescent peptide RHKKAc as substrate preincubated for 10 mins followed by substrate addition and measured after 1 hr by fluorogenic assay
Histone deacetylase 4 = Histone deacetylase 4 (Homo sapiens, UniProt P56524); assay: Inhibition of human HDAC4 using fluorescent peptide Boc-Lys(trifluoroacetyl)-AMC as substrate preincubated for 10 mins followed by substrate addition and measured after 30 mins by fluorogenic assay
Homo sapiens [2] = species on record: Homo sapiens; assay: Selectivity ratio of IC50 for inhibition of human HDAC1 expressed in human HEK-293T cells using fluorescent peptide RHKKAc as substrate to IC50 for inhibition of mouse HDAC6 expressed in human HEK-293T cells using fluorescent peptide Ac-KGLGK(Ac)-MCA as substrate; type: cell-based
Homo sapiens [3] = species on record: Homo sapiens; assay: Selectivity ratio of IC50 for inhibition of human HDAC4 using fluorescent peptide Boc-Lys(trifluoroacetyl)-AMC as substrate to IC50 for inhibition of mouse HDAC6 expressed in human HEK-293T cells using fluorescent peptide Ac-KGLGK(Ac)-MCA as substrate
[4] = molecular target: Voltage-gated inwardly rectifying potassium channel KCNH2 (Homo sapiens, UniProt Q12809); assay: Inhibition of human ERG potassium channel by fluorescence polarization assay; type: toxicity
[5] = Lipophilicity, logD of compound at pH 7.4 measured after 20 mins by UPLC analysis; type: physicochemical; conditions: buffer
[6] = Apparent permeability in human Caco-2 cells incubated for 2 hrs by LC-MS/MS analysis; type: ADME, cell-based
[7] = Metabolic stability in mouse liver microsomes assessed as parent compound remaining at 500 uM measured at 60 mins by LC-MS/MS analysis; type: ADME, Microsome; conditions: read-out: Stability
[8] = Metabolic stability in human liver microsomes assessed as parent compound remaining at 500 uM measured at 60 mins by LC-MS/MS analysis; type: ADME, Microsome; conditions: read-out: Stability
[9] = Brain to plasma ratio in C57BL/6J mouse at 10 mg/kg, iv measured after 45 mins by LC-MS/MS analysis; type: ADME, organism-based; conditions: brain and plasma, read-out: BPR
Mus musculus [10] = assay: Antidepressant activity in restraint-stressed C57BL/6J mouse model assessed as reduction in immobility time at 10 mg/kg, ip measured at 14 mins relative to control (Rvb= 569.6 +/- 27.6 sec); type: functional
Mus musculus [11] = assay: Antidepressant activity in restraint-stressed C57BL/6J mouse model assessed as reduction in immobility time at 20 mg/kg, ip measured at 14 mins relative to control (Rvb= 569.6 +/- 27.6 sec); type: functional
Mus musculus [12] = assay: Antidepressant activity in restraint-stressed C57BL/6J mouse model assessed as increase in acetylated alpha tubulin level in brain at 10 mg/kg, ip measured after 15 mins; type: functional, organism-based

Histone deacetylase 4, sequence (P56524 whole entry): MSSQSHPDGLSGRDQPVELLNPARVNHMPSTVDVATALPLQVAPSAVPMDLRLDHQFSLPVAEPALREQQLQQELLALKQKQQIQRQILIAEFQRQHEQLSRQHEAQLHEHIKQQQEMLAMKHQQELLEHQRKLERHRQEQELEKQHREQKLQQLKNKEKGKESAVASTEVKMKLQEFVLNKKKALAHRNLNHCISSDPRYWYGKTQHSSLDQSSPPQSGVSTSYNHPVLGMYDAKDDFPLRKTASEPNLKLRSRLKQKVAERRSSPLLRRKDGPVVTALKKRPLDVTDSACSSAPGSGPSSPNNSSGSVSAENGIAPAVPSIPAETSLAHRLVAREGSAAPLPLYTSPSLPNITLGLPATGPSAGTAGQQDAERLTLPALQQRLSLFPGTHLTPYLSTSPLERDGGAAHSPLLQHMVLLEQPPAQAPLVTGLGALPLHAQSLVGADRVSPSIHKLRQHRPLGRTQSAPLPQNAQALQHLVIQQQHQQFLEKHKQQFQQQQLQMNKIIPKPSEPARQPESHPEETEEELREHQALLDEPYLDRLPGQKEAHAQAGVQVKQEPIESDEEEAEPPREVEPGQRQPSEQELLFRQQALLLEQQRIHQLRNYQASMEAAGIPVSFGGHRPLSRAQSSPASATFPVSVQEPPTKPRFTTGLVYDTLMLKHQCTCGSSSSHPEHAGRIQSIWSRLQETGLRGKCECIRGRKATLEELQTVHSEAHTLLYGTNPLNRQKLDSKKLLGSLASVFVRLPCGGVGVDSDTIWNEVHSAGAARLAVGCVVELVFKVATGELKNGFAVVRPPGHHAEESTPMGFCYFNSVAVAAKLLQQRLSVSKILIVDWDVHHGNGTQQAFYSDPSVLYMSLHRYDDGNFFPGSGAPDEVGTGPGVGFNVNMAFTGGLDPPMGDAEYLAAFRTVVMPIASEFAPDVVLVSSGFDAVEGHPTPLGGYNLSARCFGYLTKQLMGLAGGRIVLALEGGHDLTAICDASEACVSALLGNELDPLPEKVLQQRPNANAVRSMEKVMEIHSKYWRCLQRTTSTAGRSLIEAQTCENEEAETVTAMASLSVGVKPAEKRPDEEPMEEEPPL
Voltage-gated inwardly rectifying potassium channel KCNH2, sequence (Q12809 whole entry): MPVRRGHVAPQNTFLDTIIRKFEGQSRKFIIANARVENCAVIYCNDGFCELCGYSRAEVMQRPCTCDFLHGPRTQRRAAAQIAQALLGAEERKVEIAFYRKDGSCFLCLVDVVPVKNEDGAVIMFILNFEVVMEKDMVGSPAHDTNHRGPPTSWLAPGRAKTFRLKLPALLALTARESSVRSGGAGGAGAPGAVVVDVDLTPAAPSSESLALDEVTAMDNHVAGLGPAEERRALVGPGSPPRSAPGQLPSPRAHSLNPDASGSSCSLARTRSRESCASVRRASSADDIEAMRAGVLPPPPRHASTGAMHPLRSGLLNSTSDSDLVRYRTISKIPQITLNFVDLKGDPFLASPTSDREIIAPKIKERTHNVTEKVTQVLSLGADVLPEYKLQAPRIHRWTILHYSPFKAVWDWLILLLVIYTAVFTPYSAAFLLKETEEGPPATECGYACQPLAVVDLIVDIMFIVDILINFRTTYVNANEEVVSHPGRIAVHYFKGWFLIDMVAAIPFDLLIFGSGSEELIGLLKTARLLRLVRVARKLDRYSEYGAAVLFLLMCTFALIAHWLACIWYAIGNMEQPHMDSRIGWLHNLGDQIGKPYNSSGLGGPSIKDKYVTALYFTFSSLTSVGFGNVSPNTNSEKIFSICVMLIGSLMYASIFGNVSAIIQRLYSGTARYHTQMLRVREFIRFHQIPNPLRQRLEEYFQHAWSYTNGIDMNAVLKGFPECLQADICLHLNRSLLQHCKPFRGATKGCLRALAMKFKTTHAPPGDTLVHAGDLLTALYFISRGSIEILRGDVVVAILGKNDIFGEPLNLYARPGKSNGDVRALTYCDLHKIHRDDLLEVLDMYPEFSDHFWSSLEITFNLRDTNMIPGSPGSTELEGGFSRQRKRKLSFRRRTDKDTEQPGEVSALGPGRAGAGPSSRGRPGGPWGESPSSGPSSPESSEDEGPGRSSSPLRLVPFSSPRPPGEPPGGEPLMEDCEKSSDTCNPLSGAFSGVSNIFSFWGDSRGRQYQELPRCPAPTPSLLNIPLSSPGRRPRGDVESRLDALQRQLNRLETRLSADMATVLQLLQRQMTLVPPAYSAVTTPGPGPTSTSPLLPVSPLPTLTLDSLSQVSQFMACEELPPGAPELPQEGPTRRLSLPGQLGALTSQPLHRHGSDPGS
Histone deacetylase 1, sequence (Q13547 whole entry): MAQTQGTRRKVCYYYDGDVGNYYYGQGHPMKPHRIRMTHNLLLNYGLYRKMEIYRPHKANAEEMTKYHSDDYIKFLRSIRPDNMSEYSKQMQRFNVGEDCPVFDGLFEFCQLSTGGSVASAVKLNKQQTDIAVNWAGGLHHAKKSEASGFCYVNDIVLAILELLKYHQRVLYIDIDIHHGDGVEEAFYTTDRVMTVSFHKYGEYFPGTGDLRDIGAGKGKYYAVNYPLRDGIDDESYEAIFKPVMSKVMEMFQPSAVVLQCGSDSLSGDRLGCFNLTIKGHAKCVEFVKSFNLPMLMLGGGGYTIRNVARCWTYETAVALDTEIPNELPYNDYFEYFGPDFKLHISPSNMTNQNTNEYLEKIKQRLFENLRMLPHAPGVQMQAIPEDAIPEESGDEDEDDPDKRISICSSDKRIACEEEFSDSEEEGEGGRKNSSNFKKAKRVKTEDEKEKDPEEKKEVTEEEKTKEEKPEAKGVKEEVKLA

Question: With O=C(NO)c1ccc(CN2CCN(C(c3ccccc3)c3ccccc3)CC2)cc1 as the compound, how does the pIC50 [1] read?
Answer: 6.96

Question: What about the pIC50 (Histone deacetylase 1) of the same compound?
Answer: 5.36

Question: What about the pIC50 (Histone deacetylase 4) of the same compound?
Answer: 5.36

Question: What about the Ratio IC50 (Homo sapiens [2]) of the same compound?
Answer: 40

Question: And the Ratio IC50 (Homo sapiens [3])?
Answer: 40

Question: What about the pIC50 [4] of the same compound?
Answer: 6.18

Question: What about the logD at 20 min [5] of the same compound?
Answer: 3.8

Question: And the Papp at 2 h [6]?
Answer: 17.1 ×10⁻⁶ cm/s

Question: What about the remaining at 1 h, 500 µM [7] of the same compound?
Answer: 1%

Question: And the remaining at 1 h [8]?
Answer: 62%

Question: What about the Kp at 0.75 h [9] of the same compound?
Answer: 7.91

Question: What about the Time (Mus musculus [10]) of the same compound?
Answer: 410.7 s

Question: With O=C(NO)c1cccc(CN2CCN(C(c3ccccc3)c3ccccc3)CC2)c1 as the compound, how does the pIC50 [1] read?
Answer: 5.18

Question: What about the pIC50 (Histone deacetylase 1) of the same compound?
Answer: 4.33

Question: And the pIC50 (Histone deacetylase 4)?
Answer: < 4.00

Question: What about the Ratio IC50 (Homo sapiens [2]) of the same compound?
Answer: 7

Question: With O=C(NO)c1ccc(CN2CCN(Cc3ccccc3)CC2)cc1 as the compound, how does the pIC50 [1] read?
Answer: 6.59

Question: And the pIC50 (Histone deacetylase 1)?
Answer: 4.98

Question: And the pIC50 (Histone deacetylase 4)?
Answer: 5.04

Question: What about the Ratio IC50 (Homo sapiens [2]) of the same compound?
Answer: 40

Question: What about the Ratio IC50 (Homo sapiens [3]) of the same compound?
Answer: 35

Question: And the pIC50 [4]?
Answer: 4.14

Question: And the logD at 20 min [5]?
Answer: 1.9

Question: And the Papp at 2 h [6]?
Answer: 11.6 ×10⁻⁶ cm/s

Question: And the remaining at 1 h, 500 µM [7]?
Answer: 80%

Question: What about the remaining at 1 h [8] of the same compound?
Answer: 73%

Question: And the Kp at 0.75 h [9]?
Answer: 4.37

Question: And the Time (Mus musculus [10])?
Answer: 507.3 s

Question: With CNCCC(Oc1ccc(C(F)(F)F)cc1)c1ccccc1 (stereo not given) [FLUOXETINE] as the compound, how does the Time (Mus musculus [11]) read?
Answer: 405.5 s

Question: With O=C(NO)c1ccc(CCCCN2CCN(C(c3ccccc3)c3ccccc3)CC2)cc1 as the compound, how does the pIC50 [1] read?
Answer: 6.37

Question: And the pIC50 (Histone deacetylase 1)?
Answer: 5.26

Question: And the pIC50 (Histone deacetylase 4)?
Answer: 5.30

Question: And the Ratio IC50 (Homo sapiens [2])?
Answer: 13

Question: And the Ratio IC50 (Homo sapiens [3])?
Answer: 12

Question: With CC(c1ccccc1)N1CCN(Cc2ccc(C(=O)NO)cc2)CC1 (stereo not given) as the compound, how does the pIC50 [1] read?
Answer: 6.59

Question: What about the pIC50 (Histone deacetylase 1) of the same compound?
Answer: 5.17

Question: What about the pIC50 (Histone deacetylase 4) of the same compound?
Answer: 4.91

Question: What about the Ratio IC50 (Homo sapiens [2]) of the same compound?
Answer: 26

Question: What about the Ratio IC50 (Homo sapiens [3]) of the same compound?
Answer: 47

Question: What about the pIC50 [4] of the same compound?
Answer: 3.97

Question: What about the logD at 20 min [5] of the same compound?
Answer: 2.1

Question: And the Papp at 2 h [6]?
Answer: 10.9 ×10⁻⁶ cm/s

Question: And the remaining at 1 h, 500 µM [7]?
Answer: 67%

Question: What about the remaining at 1 h [8] of the same compound?
Answer: 63%

Question: What about the Kp at 0.75 h [9] of the same compound?
Answer: 6.73

Question: And the Time (Mus musculus [10])?
Answer: 453 s

Question: And the Activity (Mus musculus [12])?
Answer: Active

Question: Which results are given for O=C(NO)c1ccc(CCCN2CCN(C(c3ccccc3)c3ccccc3)CC2)cc1?
Answer: pIC50 [1]: 6.24; pIC50 (Histone deacetylase 1): 5.42; pIC50 (Histone deacetylase 4): 5.72; Ratio IC50 (Homo sapiens [2]): 7; Ratio IC50 (Homo sapiens [3]): 3

Question: With O=C(NO)c1ccccc1CN1CCN(C(c2ccccc2)c2ccccc2)CC1 as the compound, how does the pIC50 [1] read?
Answer: < 4.00

Question: What about the pIC50 (Histone deacetylase 1) of the same compound?
Answer: < 4.00

Question: And the pIC50 (Histone deacetylase 4)?
Answer: < 4.00

Question: With O=C(NO)c1ccc(CCN2CCN(C(c3ccccc3)c3ccccc3)CC2)cc1 as the compound, how does the pIC50 [1] read?
Answer: 6.48

Question: And the pIC50 (Histone deacetylase 1)?
Answer: 5.32

Question: What about the pIC50 (Histone deacetylase 4) of the same compound?
Answer: 5.52

Question: And the Ratio IC50 (Homo sapiens [2])?
Answer: 15

Question: What about the Ratio IC50 (Homo sapiens [3]) of the same compound?
Answer: 9
